Reference: patent publication US11173151B2, “Substituted triazole derivatives and uses thereof” (BAYER AKTIENGESELLSCHAFT, priority 2017, dated 2021)
pIC50: −log10 of the molar value.

Columns and labels:
[1] = molecular target: T1, human V2 receptor (Homo sapiens, UniProt P30518); assay: Cellular in vitro assay for determining vasopressin receptor activity, V2 receptor cell line (CHO, CRE-luciferase); format: cell-based; conditions: CHO cell line transfected with human V2 receptor; [Arg8]-vasopressin at EC50 concentration, 3 hours; read-out: IC50 hV2
T1 construct: expressed in transfected cells; host or cells: CHO K1 (ATCC) expressing firefly luciferase under a CRE-responsive promoter
T1 sequence (P30518 whole entry): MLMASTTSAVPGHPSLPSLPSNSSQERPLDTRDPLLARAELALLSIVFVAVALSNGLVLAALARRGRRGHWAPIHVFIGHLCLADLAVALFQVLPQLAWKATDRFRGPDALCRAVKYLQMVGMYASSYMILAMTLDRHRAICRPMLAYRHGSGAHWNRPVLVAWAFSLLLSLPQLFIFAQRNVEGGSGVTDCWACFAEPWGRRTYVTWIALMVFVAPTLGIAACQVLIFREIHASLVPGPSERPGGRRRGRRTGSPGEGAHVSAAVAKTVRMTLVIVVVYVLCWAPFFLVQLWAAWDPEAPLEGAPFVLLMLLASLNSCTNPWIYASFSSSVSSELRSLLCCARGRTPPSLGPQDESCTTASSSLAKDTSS

[2] = molecular target: T2, human V1a receptor (Homo sapiens, UniProt P37288); assay: Cellular in vitro assay for determining vasopressin receptor activity, V1a receptor cell line (CHO, aequorin luminescence); format: cell-based; conditions: for pIC50: CHO cell line transfected with human V1a receptor, [Arg]-vasopressin at EC50 concentration, read-out: IC50 hV1a; for ratio IC50 hV2/hV1a: selectivity ratio IC50 hV2 / IC50 hV1a
T2 construct: expressed in transfected cells; host or cells: CHO K1 (ATCC), also stably transfected with a modified aequorin
T2 sequence (P37288 whole entry): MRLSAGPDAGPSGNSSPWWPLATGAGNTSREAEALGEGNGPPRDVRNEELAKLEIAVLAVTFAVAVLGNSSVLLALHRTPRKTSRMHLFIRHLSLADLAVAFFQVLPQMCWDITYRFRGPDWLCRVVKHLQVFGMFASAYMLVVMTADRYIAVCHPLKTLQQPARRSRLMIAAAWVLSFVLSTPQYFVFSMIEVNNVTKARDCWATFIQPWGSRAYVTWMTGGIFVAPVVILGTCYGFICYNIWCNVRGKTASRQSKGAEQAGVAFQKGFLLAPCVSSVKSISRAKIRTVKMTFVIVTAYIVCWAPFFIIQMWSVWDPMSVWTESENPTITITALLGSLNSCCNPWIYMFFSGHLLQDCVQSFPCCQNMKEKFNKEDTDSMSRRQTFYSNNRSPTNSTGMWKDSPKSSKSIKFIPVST
Method in brief: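 Luminescence from reconstituted aequorin, reporting intracellular calcium release, was measured immediately after adding [Arg]-vasopressin at EC50 concentration to CHO K1 cells pretreated 10 minutes with graded compound concentrations. Inhibition gave IC50 values.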

**Q.** O=C(c1ccccc1-n1cnc(Cn2nc(-c3ccc(Cl)cc3)n(C[C@H](O)C(F)(F)F)c2=O)n1)N1CCSC1 [Example 334, 5-(4-Chlorophenyl)-2-({1-[2-(1,3-thiazolidin-3-ylcarbonyl)phenyl]-1H-1,2,4-triazol-3-yl}methyl)-4-[(2S)-3,3,3-trifluoro-2-hydroxypropyl]-2,4-dihydro-3H-1,2,4-triazol-3-one] was tested. Which pIC50 [1] did it give?
**A.** 6.07

**Q.** What about the pIC50 [2] of the same compound?
**A.** 8.53

**Q.** And the “ratio IC50 hV2/hV1a” value [2]?
**A.** 289.8

**Q.** Which results are given for COC[C@H]1CCCN1C(=O)c1ccccc1-n1cnc(Cn2nc(-c3ccc(Cl)cc3)n(C[C@H](O)C(F)(F)F)c2=O)n1 [Example 335, 5-(4-Chlorophenyl)-2-{[1-(2-{[(2R)-2-(methoxymethyl)pyrrolidin-1-yl]carbonyl}phenyl)-1H-1,2,4-triazol-3-yl]methyl}-4-[(2S)-3,3,3-trifluoro-2-hydroxypropyl]-2,4-dihydro-3H-1,2,4-triazol-3-one]?
**A.** pIC50 [1]: 5.96; pIC50 [2]: 7.81; ratio IC50 hV2/hV1a [2]: 71.3

**Q.** What does the source list for CC1(C)CCCN1C(=O)c1ccccc1-n1cnc(Cn2nc(-c3ccc(Cl)cc3)n(C[C@H](O)C(F)(F)F)c2=O)n1 [Example 336, 5-(4-Chlorophenyl)-2-[(1-{2-[(2,2-dimethylpyrrolidin-1-yl)carbonyl]phenyl}-1H-1,2,4-triazol-3-yl)methyl]-4-[(2S)-3,3,3-trifluoro-2-hydroxypropyl]-2,4-dihydro-3H-1,2,4-triazol-3-one]?
**A.** pIC50 [1]: 5.90; pIC50 [2]: 8.55; ratio IC50 hV2/hV1a [2]: 453.6

**Q.** With O=C(c1ccccc1-n1cnc(Cn2nc(-c3ccc(Cl)cc3)n(C[C@H](O)C(F)(F)F)c2=O)n1)N1CCCCC1 [Example 338, 5-(4-Chlorophenyl)-2-({1-[2-(piperidin-1-ylcarbonyl)phenyl]-1H-1,2,4-triazol-3-yl}methyl)-4-[(2S)-3,3,3-trifluoro-2-hydroxypropyl]-2,4-dihydro-3H-1,2,4-triazol-3-one] as the compound, how does the pIC50 [1] read?
**A.** 6.02

**Q.** What about the pIC50 [2] of the same compound?
**A.** 8.80

**Q.** And the “ratio IC50 hV2/hV1a” value [2]?
**A.** 600.0

**Q.** COC[C@@H]1CCCN1C(=O)c1ccccc1-n1cnc(Cn2nc(-c3ccc(Cl)cc3)n(C[C@H](O)C(F)(F)F)c2=O)n1 [Example 339, 5-(4-Chlorophenyl)-2-{[1-(2-{[(2S)-2-(methoxymethyl)pyrrolidin-1-yl]carbonyl}phenyl)-1H-1,2,4-triazol-3-yl]methyl}-4-[(2S)-3,3,3-trifluoro-2-hydroxypropyl]-2,4-dihydro-3H-1,2,4-triazol-3-one] was tested. Which pIC50 [1] did it give?
**A.** 5.44

**Q.** And the pIC50 [2]?
**A.** 8.56

**Q.** And the “ratio IC50 hV2/hV1a” value [2]?
**A.** 1327.3

**Q.** How did the pIC50 [1] turn out when O=C(NC1CC1)c1ccccc1-n1cnc(Cn2nc(-c3ccc(Cl)cc3)n(C[C@H](O)C(F)(F)F)c2=O)n1 [Example 340, 2-[3-({3-(4-Chlorophenyl)-5-oxo-4-[(2S)-3,3,3-trifluoro-2-hydroxypropyl]-4,5-dihydro-1H-1,2,4-triazol-1-yl}methyl)-1H-1,2,4-triazol-1-yl]-N-cyclopropylbenzamide] was run?
**A.** 6.41

**Q.** What about the pIC50 [2] of the same compound?
**A.** 8.07

**Q.** What about the “ratio IC50 hV2/hV1a” value [2] of the same compound?
**A.** 45.9

**Q.** Which results are given for CC(C)CNC(=O)c1ccccc1-n1cnc(Cn2nc(-c3ccc(Cl)cc3)n(C[C@H](O)C(F)(F)F)c2=O)n1 [Example 341, 2-[3-({3-(4-Chlorophenyl)-5-oxo-4-[(2S)-3,3,3-trifluoro-2-hydroxypropyl]-4,5-dihydro-1H-1,2,4-triazol-1-yl}methyl)-1H-1,2,4-triazol-1-yl]-N-(2-methylpropyl)benzamide]?
**A.** pIC50 [1]: 6.69; pIC50 [2]: 8.81; ratio IC50 hV2/hV1a [2]: 132.3

**Q.** O=C(NC1CCCCCC1)c1ccccc1-n1cnc(Cn2nc(-c3ccc(Cl)cc3)n(C[C@H](O)C(F)(F)F)c2=O)n1 [Example 342, 2-[3-({3-(4-Chlorophenyl)-5-oxo-4-[(2S)-3,3,3-trifluoro-2-hydroxypropyl]-4,5-dihydro-1H-1,2,4-triazol-1-yl}methyl)-1H-1,2,4-triazol-1-yl]-N-cycloheptylbenzamide] was tested. Which pIC50 [1] did it give?
**A.** 6.44

**Q.** What about the pIC50 [2] of the same compound?
**A.** 8.21

**Q.** And the “ratio IC50 hV2/hV1a” value [2]?
**A.** 59.3

**Q.** How did the pIC50 [1] turn out when O=C(NC1CCCC1)c1ccccc1-n1cnc(Cn2nc(-c3ccc(Cl)cc3)n(C[C@H](O)C(F)(F)F)c2=O)n1 [Example 343, 2-[3-({3-(4-Chlorophenyl)-5-oxo-4-[(2S)-3,3,3-trifluoro-2-hydroxypropyl]-4,5-dihydro-1H-1,2,4-triazol-1-yl}methyl)-1H-1,2,4-triazol-1-yl]-N-cyclopentylbenzamide] was run?
**A.** 6.99

**Q.** What about the pIC50 [2] of the same compound?
**A.** 9.06

**Q.** And the “ratio IC50 hV2/hV1a” value [2]?
**A.** 118.4

**Q.** CC(C)(C)NC(=O)c1ccccc1-n1cnc(Cn2nc(-c3ccc(Cl)cc3)n(C[C@H](O)C(F)(F)F)c2=O)n1 [Example 344, N-Tert-butyl-2-[3-({3-(4-chlorophenyl)-5-oxo-4-[(2S)-3,3,3-trifluoro-2-hydroxypropyl]-4,5-dihydro-1H-1,2,4-triazol-1-yl}methyl)-1H-1,2,4-triazol-1-yl]benzamide] was tested. Which pIC50 [1] did it give?
**A.** 8.33

**Q.** And the pIC50 [2]?
**A.** 9.03

**Q.** What about the “ratio IC50 hV2/hV1a” value [2] of the same compound?
**A.** 5.0

**Q.** With CC[C@H](C)NC(=O)c1ccccc1-n1cnc(Cn2nc(-c3ccc(Cl)cc3)n(C[C@H](O)C(F)(F)F)c2=O)n1 [Example 346, N-[(2S)-Butan-2-yl]-2-[3-({3-(4-chlorophenyl)-5-oxo-4-[(2S)-3,3,3-trifluoro-2-hydroxypropyl]-4,5-dihydro-1H-1,2,4-triazol-1-yl}methyl)-1H-1,2,4-triazol-1-yl]benzamide] as the compound, how does the pIC50 [1] read?
**A.** 6.93

**Q.** And the pIC50 [2]?
**A.** 8.76

**Q.** What about the “ratio IC50 hV2/hV1a” value [2] of the same compound?
**A.** 67.7

**Q.** Which results are given for CC1CCN(C(=O)c2ccccc2-n2cnc(Cn3nc(-c4ccc(Cl)cc4)n(C[C@H](O)C(F)(F)F)c3=O)n2)CC1 [Example 347, 5-(4-Chlorophenyl)-2-[(1-{2-[(4-methylpiperidin-1-yl)carbonyl]phenyl}-1H-1,2,4-triazol-3-yl)methyl]-4-[(2S)-3,3,3-trifluoro-2-hydroxypropyl]-2,4-dihydro-3H-1,2,4-triazol-3-one]?
**A.** pIC50 [1]: 5.97; pIC50 [2]: 8.12; ratio IC50 hV2/hV1a [2]: 141.1

**Q.** Which results are given for O=C(c1ccccc1-n1cnc(Cn2nc(-c3ccc(Cl)cc3)n(C[C@H](O)C(F)(F)F)c2=O)n1)N1CCCC1 [Example 348, 5-(4-Chlorophenyl)-2-({1-[2-(pyrrolidin-1-ylcarbonyl)phenyl]-1H-1,2,4-triazol-3-yl}methyl)-4-[(2S)-3,3,3-trifluoro-2-hydroxypropyl]-2,4-dihydro-3H-1,2,4-triazol-3-one]?
**A.** pIC50 [1]: 6.01; pIC50 [2]: 8.41; ratio IC50 hV2/hV1a [2]: 251.9

**Q.** How did the pIC50 [1] turn out when CCN(C(=O)c1ccccc1-n1cnc(Cn2nc(-c3ccc(Cl)cc3)n(C[C@H](O)C(F)(F)F)c2=O)n1)C(C)C [Example 349, 2-[3-({3-(4-Chlorophenyl)-5-oxo-4-[(2S)-3,3,3-trifluoro-2-hydroxypropyl]-4,5-dihydro-1H-1,2,4-triazol-1-yl}methyl)-1H-1,2,4-triazol-1-yl]-N-ethyl-N-(propan-2-yl)benzamide] was run?
**A.** 6.13

**Q.** And the pIC50 [2]?
**A.** 8.33

**Q.** What about the “ratio IC50 hV2/hV1a” value [2] of the same compound?
**A.** 157.4

**Q.** O=C(c1ccccc1-n1cnc(Cn2nc(-c3ccc(Cl)cc3)n(C[C@H](O)C(F)(F)F)c2=O)n1)N1CCCCCC1 [Example 350, 2-({1-[2-(Azepan-1-ylcarbonyl)phenyl]-1H-1,2,4-triazol-3-yl}methyl)-5-(4-chlorophenyl)-4-[(2S)-3,3,3-trifluoro-2-hydroxypropyl]-2,4-dihydro-3H-1,2,4-triazol-3-one] was tested. Which pIC50 [1] did it give?
**A.** 6.58

**Q.** What about the pIC50 [2] of the same compound?
**A.** 8.74

**Q.** And the “ratio IC50 hV2/hV1a” value [2]?
**A.** 147.2

**Q.** How did the pIC50 [1] turn out when CC1CCCCN1C(=O)c1ccccc1-n1cnc(Cn2nc(-c3ccc(Cl)cc3)n(C[C@H](O)C(F)(F)F)c2=O)n1 (stereo partly drawn) [Example 352, 5-(4-Chlorophenyl)-2-{[1-(2-{[2-methylpiperidin-1-yl]carbonyl}phenyl)-1H-1,2,4-triazol-3-yl]methyl}-4-[(2S)-3,3,3-trifluoro-2-hydroxypropyl]-2,4-dihydro-3H-1,2,4-triazol-3-one] was run?
**A.** 6.49

**Q.** What about the pIC50 [2] of the same compound?
**A.** 9.08

**Q.** What about the “ratio IC50 hV2/hV1a” value [2] of the same compound?
**A.** 383.2

**Q.** What does the source list for O=C(c1ccccc1-n1cnc(Cn2nc(-c3ccc(Cl)cc3)n(C[C@H](O)C(F)(F)F)c2=O)n1)N1CC=CCC1 [Example 353, 5-(4-Chlorophenyl)-2-({1-[2-(3,6-dihydropyridin-1(2H)-ylcarbonyl)phenyl]-1H-1,2,4-triazol-3-yl}methyl)-4-[(2S)-3,3,3-trifluoro-2-hydroxypropyl]-2,4-dihydro-3H-1,2,4-triazol-3-one]?
**A.** pIC50 [1]: 6.55; pIC50 [2]: 9.03; ratio IC50 hV2/hV1a [2]: 299.5

**Q.** O=C(NC1CCCCC1)c1ccccc1-n1cnc(Cn2nc(-c3ccc(Cl)cc3)n(C[C@H](O)C(F)(F)F)c2=O)n1 [Example 354, 2-[3-({3-(4-Chlorophenyl)-5-oxo-4-[(2S)-3,3,3-trifluoro-2-hydroxypropyl]-4,5-dihydro-1H-1,2,4-triazol-1-yl}methyl)-1H-1,2,4-triazol-1-yl]-N-cyclohexylbenzamide] was tested. Which pIC50 [1] did it give?
**A.** 6.82

**Q.** What about the pIC50 [2] of the same compound?
**A.** 8.65

**Q.** And the “ratio IC50 hV2/hV1a” value [2]?
**A.** 66.7

**Q.** What does the source list for CC(C)CN(C)C(=O)c1ccccc1-n1cnc(Cn2nc(-c3ccc(Cl)cc3)n(C[C@H](O)C(F)(F)F)c2=O)n1 [Example 356, 2-[3-({3-(4-Chlorophenyl)-5-oxo-4-[(2S)-3,3,3-trifluoro-2-hydroxypropyl]-4,5-dihydro-1H-1,2,4-triazol-1-yl}methyl)-1H-1,2,4-triazol-1-yl]-N-methyl-N-(2-methylpropyl)benzamide]?
**A.** pIC50 [1]: 5.72; pIC50 [2]: 8.61; ratio IC50 hV2/hV1a [2]: 771.4

**Q.** What does the source list for CN1CCN(C(=O)c2ccccc2-n2cnc(Cn3nc(-c4ccc(Cl)cc4)n(C[C@H](O)C(F)(F)F)c3=O)n2)CC1 [Example 357, 5-(4-Chlorophenyl)-2-[(1-{2-[(4-methylpiperazin-1-yl)carbonyl]phenyl}-1H-1,2,4-triazol-3-yl)methyl]-4-[(2S)-3,3,3-trifluoro-2-hydroxypropyl]-2,4-dihydro-3H-1,2,4-triazol-3-one]?
**A.** pIC50 [1]: 5.61; pIC50 [2]: 7.48; ratio IC50 hV2/hV1a [2]: 74.2
